Assay results as given in ChEMBL document CHEMBL5038584, “Dual-Targeting Antiproliferation Hybrids Derived from 1-Deoxynojirimycin and Kaempferol Induce MCF-7 Cell Apoptosis through the Mitochondria-Mediated Pathway” (J Nat Prod, 2021).
Calls of active or inactive are those of the source. The calls are words filed in the database; no cut-off is given here.

Experiments:
HCC1937 = test: Cytotoxicity against human HCC1937 cells measured after 48 hrs by MTT assay; type: functional, cell-based; conditions: HCC1937, 48 h
[1] = Lipophilicity, logP of compound by shake flask method; type: physicochemical; conditions: octanol/water
MCF7 [2] = test: Induction of apoptosis in human MCF7 cells assessed as viable cells at 20 uM measured after 24 hrs by AnnexinV/[…]-PI staining based flow cytometry method (Rvb =97 %); type: functional; conditions: read-out: Activity
MCF7 [3] = test: Antimigratory activity against human MCF7 cells at 10 uM after 24 hrs by inverted fluorescence microscope analysis relative to control (reference value: 82.9%).; type: functional
MCF7 [4] = test: Cell cycle arrest in human MCF7 cells assessed as accumulation of cells at G2 phase at 20 uM measured after 24 hrs by PI staining based flow cytometry assay (reference value: 14.91%); type: functional
HepG2 = test: Cytotoxicity against human HepG2 cells measured after 48 hrs by MTT assay; type: functional, cell-based; conditions: HepG2, 48 h
BGC-823 = test: Cytotoxicity against human BGC-823 cells measured after 48 hrs by MTT assay; type: functional, cell-based; conditions: BGC-823, 48 h
MCF7 [5] = test: Induction of apoptosis in human MCF7 cells assessed as necrotic cells at 20 uM measured after 24 hrs by AnnexinV/[…]-PI staining based flow cytometry method (Rvb =1.28 %); type: functional
MCF7 [6] = test: Cytotoxicity against human MCF7 cells measured after 48 hrs by MTT assay; type: functional, cell-based; conditions: MCF7, 48 h
MCF7 [7] = test: Cell cycle arrest in human MCF7 cells assessed as accumulation of cells at S phase at 20 uM measured after 24 hrs by PI staining based flow cytometry assay (reference value: 25.64%); type: functional
MCF7 [8] = test: Cell cycle arrest in human MCF7 cells assessed as accumulation of cells at G1 phase at 20 uM measured after 24 hrs by PI staining based flow cytometry assay (reference value: 59.45%); type: functional
A549 = test: Cytotoxicity against human A549 cells measured after 48 hrs by MTT assay; type: functional, cell-based; conditions: A549, 48 h
MCF7 [9] = test: Induction of apoptosis in human MCF7 cells assessed as late apoptotic cells at 20 uM measured after 24 hrs by AnnexinV/[…]-PI staining based flow cytometry method (Rvb =1.28 %); type: functional
MCF7 [10] = test: Induction of apoptosis in human MCF7 cells assessed as early apoptotic cells at 20 uM measured after 24 hrs by AnnexinV/[…]-PI staining based flow cytometry method (Rvb =0.466 %); type: functional
HCT-116 = test: Cytotoxicity against human HCT-116 cells measured after 48 hrs by MTT assay; type: functional, cell-based; conditions: HCT-116, 48 h
MCF7 [11] = test: Induction of apoptosis in human MCF7 cells assessed as decrease of COX-2 protein level at 10 uM measured after 24 hrs by Western blot assay; type: functional, cell-based
MCF7 [12] = test: Induction of mitochondrial membrane potential loss in human MCF7 cells at 5 to 10 uM measured after 24 hrs by JC-1 staining based flourescence microscopy method; type: functional, cell-based; conditions: dose 5-10 µM
MCF7 [13] = test: Induction of apoptosis in human MCF7 cells assessed as increase of Bax protein level at 10 uM measured after 24 hrs by Western blot assay; type: functional, cell-based
MCF7 [14] = test: Induction of apoptosis in human MCF7 cells assessed as necrotic cells at 10 uM measured after 24 hrs by AnnexinV/[…]-PI staining based flow cytometry method (Rvb =1.28 %); type: functional
MCF7 [15] = test: Induction of apoptosis in human MCF7 cells assessed as increase of Bax/Bcl2 ratio at 10 uM measured after 24 hrs by Western blot assay; type: functional, cell-based
MCF7 [16] = test: Induction of apoptosis in human MCF7 cells assessed as late apoptotic cells at 10 uM measured after 24 hrs by AnnexinV/[…]-PI staining based flow cytometry method (Rvb =1.28 %); type: functional
MCF7 [17] = test: Induction of apoptosis in human MCF7 cells at 10 uM measured after 24 hrs by AnnexinV/[…]-PI staining based flow cytometry method; type: functional
MCF7 [18] = test: Cell cycle arrest in human MCF7 cells assessed as accumulation of cells at G1 phase at 10 uM measured after 24 hrs by PI staining based flow cytometry assay (reference value: 59.45%); type: functional
MCF7 [19] = test: Cell cycle arrest in human MCF7 cells assessed as accumulation of cells at G2 phase at 10 uM measured after 24 hrs by PI staining based flow cytometry assay (reference value: 14.91%); type: functional
MCF7 [20] = test: Induction of apoptosis in human MCF7 cells assessed as decrease of Bcl2 protein level at 10 uM measured after 24 hrs by Western blot assay; type: functional, cell-based
MCF7 [21] = test: Induction of apoptosis in human MCF7 cells assessed as early apoptotic cells at 10 uM measured after 24 hrs by AnnexinV/[…]-PI staining based flow cytometry method (Rvb =0.466 %); type: functional
MCF7 [22] = test: Anticlonogenic activity against human MCF7 cells assessed as inhibition of colony formation at 5 to 10 uM measured after 48 hrs by crystal violet staining based colony forming assay; type: functional, cell-based; conditions: dose 5-10 µM
MCF7 [23] = test: Antimigratory activity against human MCF7 cells at 5 uM after 24 hrs by inverted fluorescence microscope analysis relative to control (reference value: 82.9%); type: functional
MCF7 [24] = test: Induction of apoptosis in human MCF7 cells assessed as cell shrinkage at 20 uM measured after 24 hrs by Hoechst 33342 staining based flourescence microscopy method; type: functional
MCF7 [25] = test: Induction of apoptosis in human MCF7 cells assessed as viable cells at 10 uM measured after 24 hrs by AnnexinV/[…]-PI staining based flow cytometry method (Rvb =97 %); type: functional; conditions: read-out: Activity
MCF7 [26] = test: Cell cycle arrest in human MCF7 cells assessed as accumulation of cells at S phase at 10 uM measured after 24 hrs by PI staining based flow cytometry assay (reference value: 25.64%); type: functional
MCF7 [27] = test: Induction of apoptosis in human MCF7 cells assessed as nuclear changes at 20 uM measured after 24 hrs by Hoechst 33342 staining based flourescence microscopy method; type: functional, cell-based
MCF7 [28] = test: Induction of apoptosis in human MCF7 cells assessed as increase in intracellular ROS levels at 10 uM measured after 24 hrs by DCFH-DA staining based flow cytometry method; type: functional, cell-based
MCF7 [29] = test: Induction of apoptosis in human MCF7 cells at 20 uM measured after 24 hrs by AnnexinV/[…]-PI staining based flow cytometry method; type: functional
MCF7 [30] = test: Induction of intracellular calcium level in human MCF7 cells at 5 to 10 uM measured after 24 hrs by Fluo-4AM staining based flourescence microscopy method; type: functional, cell-based; conditions: dose 5-10 µM

Row | SMILES | logP [1] | IC50 (HCC1937) [µM] | viability at 20 µM (MCF7 [2]) [%] | Activity (MCF7 [3]) [%] | Activity (MCF7 [4]) [%] | IC50 (HepG2) [µM] | IC50 (BGC-823) [µM] | Activity (MCF7 [5]) [%] | IC50 (MCF7 [6]) [µM] | Activity (MCF7 [7]) [%] | Activity (MCF7 [8]) [%] | IC50 (A549) [µM] | Activity (MCF7 [9]) [%] | Activity (MCF7 [10]) [%] | IC50 (HCT-116) [µM] | Activity (MCF7 [11]) | also measured
1 | O=c1c(O)c(-c2ccc(O)cc2)oc2cc(O)cc(O)c12 [KAEMPFEROL] |  | > 10 | 95.4 | 79.9 | 7.02 | > 10 | > 10 | 1.61 | > 10 | 29.49 | 53.49 | > 10 | 2.43 | 0.556 | > 10 | Active | 
2 | COc1ccc(-c2oc3cc(OC)cc(OC)c3c(=O)c2OCCCCCCCCCCCN2C[C@H](O)[C@@H](O)[C@H](O)[C@H]2CO)cc1 | 2.92 | 7.1 | 27.3 | 46 | 0.87 | 7.7 | 4.5 | 4.83 | 3.6 | 56.48 | 42.64 | 5.1 | 29.9 | 37.9 | 7.8 | Active | Activity (MCF7 [12]): Active; Activity (MCF7 [13]): Active; Activity (MCF7 [14]): 4.03%; Activity (MCF7 [15]): Active; Activity (MCF7 [16]): 5.97%; Activity (MCF7 [17]): 6.48%; Activity (MCF7 [18]): 55.3%; Activity (MCF7 [19]): 18.07%; Activity (MCF7 [20]): Active; Activity (MCF7 [21]): 0.508%; Activity (MCF7 [22]): Active; Activity (MCF7 [23]): 56.5%; Activity (MCF7 [24]): Active; viability at 10 µM (MCF7 [25]): 89.5%; Activity (MCF7 [26]): 26.6%; Activity (MCF7 [27]): Active; Activity (MCF7 [28]): Active; Activity (MCF7 [29]): 67.8%; Activity (MCF7 [30]): Dose-Dependent Effect

Further lines, with some results ahead:

Row | logP [1] | SMILES | IC50 (HCC1937) [µM] | viability at 20 µM (MCF7 [2]) [%] | Activity (MCF7 [3]) [%] | Activity (MCF7 [4]) [%] | IC50 (HepG2) [µM] | IC50 (BGC-823) [µM] | Activity (MCF7 [5]) [%] | IC50 (MCF7 [6]) [µM] | Activity (MCF7 [7]) [%] | Activity (MCF7 [8]) [%] | IC50 (A549) [µM] | Activity (MCF7 [9]) [%] | Activity (MCF7 [10]) [%] | IC50 (HCT-116) [µM] | Activity (MCF7 [11]) | also measured
3 | -0.68 | OC[C@H]1NC[C@H](O)[C@@H](O)[C@@H]1O [DUVOGLUSTAT] | > 10 | 96.6 | 78.4 | 19 | > 10 | > 10 | 1.19 | > 10 | 31.41 | 49.59 | > 10 | 1.75 | 0.409 | > 10 |  | 
4 | 1.65 | COc1ccc(-c2oc3cc(OC)cc(OC)c3c(=O)c2OCCCCCCCCN2C[C@H](O)[C@@H](O)[C@H](O)[C@H]2CO)cc1 | > 10 |  |  |  | > 10 | > 10 |  | > 10 |  |  | 7.6 |  |  | 8.8 |  | 
5 | 0.49 | COc1ccc(-c2oc3cc(OC)cc(OC)c3c(=O)c2OCCCCCN2C[C@H](O)[C@@H](O)[C@H](O)[C@H]2CO)cc1 | > 10 |  |  |  | > 10 | > 10 |  | > 10 |  |  | > 10 |  |  | > 10 |  | 
